Assay: Solubility of AXT in water
Type: physicochemical

## CNC(=O)c1ccccc1Sc1ccc2c(/C=C/c3ccccn3)n[nH]c2c1 [AXT, Axitinib]
  Solubility in water: poorly soluble in water

Source: US12016958B2, “Method for delivering an agent to posterior segment of an eye and uses thereof” (NANO TARGETING & THERAPY BIOPHARMA INC., priority 2021, dated 2024)
